One data set deals with T1, BRD4 (BD1) (Homo sapiens, UniProt O60885).
T1 construct: Each member comprises two tandem bromodomains (BD1 and BD2) for recognizing the acetylated lysine residues
In words: BRD4 (BD1) bromodomain binding, HTRF. Conditions: 2 h incubation at r.t.

The target of a further data set is T2, BRD4 (BD2) (Homo sapiens, UniProt O60885).
T2 construct: Each member comprises two tandem bromodomains (BD1 and BD2) for recognizing the acetylated lysine residues
The data set can be described thus: BRD4 (BD2) bromodomain binding, HTRF. Particulars: 2 h incubation at r.t. In general terms: TR-FRET usually uses a lanthanide donor and a delayed reading to cut background.

The test system of a further data set is MV-4-11 cells. In words: Inhibitory effect on MV-4-11 cells (CellTiter-Glo). The class given is cell-based. Conditions: Homo sapiens, MV4-11; 72 hours, CellTiter-Glo; read-out: MV-4-11.
Data set [1] can be described thus: Metabolic stability in human liver microsomes. The class given is in vitro ADME. Conditions: human liver microsomes 0.5 mg/mL, NADPH, 37° C.; for CLint scaled at 1 µM: pH 7.4, read-out: HLM_CLint. Here is the method:
(§1) Determinations of the metabolic stability of the compound from the above embodiments, the detailed operation steps are as followed:
(§2) 1. Preparation of buffer C:
(§3) Buffer A: 1.0 L of 0.1 M potassium dihydrogen phosphate buffer (containing 1.0 mM EDTA);
(§4) Buffer B: 1.0 L of 0.1 M dipotassium hydrogen phosphate buffer (containing 1.0 mM EDTA);
(§5) Buffer C: 500 mL Buffer B was titrated with Buffer A to pH 7.4.
(§6) 2. 10 mM stock solution preparation:
(§7) 10 mM test compound: A certain amount of the test compound was weighed and dissolved in DMSO.
(§8) 10 mM control: 5.455 mg of ketanserin dissolved in 1 mL DMSO.
(§9) 3. Preparation of the drug solution:
(§10) 500 μM solution: 5 μL of 10 mM stock solution (see step 2) was added into 95 μL ACN;
(§11) 1.5 μM dosing solution (dissolved in liver microsome solution):
(§12) 18.75 μL of 20 mg/mL liver microsomes was added into 479.75 μL of Buffer C, then 1.5 μL of 500 μM solution was added and mixed gently by shaking.
(§13) 4. Preparation of 6 mM NADPH solution:
(§14) 15 mg NADPH was weighted, then added into 3 mL of buffer C to prepare a 6 mM NADPH solution.
(§15) 5. 30 µL of 1.5 μM dosing solution (see step 3) was added into the wells of the 96-well plate set at different time points (0 minutes, 5 minutes, 15 minutes, 30 minutes, 45 minutes), number of dulplicate sample is 2.
(§16) 6. Preparation of a 0 minutes sample: 135 μL ACN (with internal standard) was added to the 0 minutes well, followed by 15 µL of 6 mM NADPH solution.
(§17) 7. The 96-well plate containing 1.5 μM dosing solution and NADPH solution were preheated in a 37° C. water bath for 5 minutes.
(§18) 8. The 15 µL of 6 mM NADPH solution preheated was added into the wells set to 5 minutes, 15 minutes, 30 minutes, 45 minutes, then the reaction was initiated and started counting the time.
(§19) 10. The sample was vortexed for 10 min, and then centrifuged for 15 minutes on a centrifuge (Thermo Multifuge×3R) using 5594×g.
(§20) 11. 50 μL of the supernatant was taken from the centrifuged sample, transferred to a 96-well sample plate to which 100 μL of ultrapure water had already been added, mixed, and finally sent to LC-MS/MS for analysis.
(§21) Half time (T1/2)=0.693/K (K is the rate constant obtained by linear regression of the logarithm of the concentration as vertical coordinates and the culturing time as the abscissa)
(§22) 2. According to the equation formula bellow, Excel was used to plot the compound content versus reaction time, as well as half life calculation (min)
(§23) Y=(Y0−Plateau)×e^(−K*X)+Plateau
(§24) Y0 represents the compound content at 0 minutes; Y represents the compound content; X represents the time point; K represents degration rate constant of the compound; Plateau represents the lowest possible content of the compound (defined herein as 0).
A general note: Liver microsomes are a subcellular fraction often used to study metabolism.

Data set [2] is described as follows: Metabolic stability in mouse liver microsomes. In kind it is in vitro ADME. Particulars: mouse liver microsomes 0.5 mg/mL, NADPH, 37° C.; for CLint scaled at 1 µM: pH 7.4, read-out: MLM_CLint. As to the method:
as §1, §2, §3, §4, §5, §6, §7, §8, §9, §10, §11, §12, §13, §14, §15, §16, §17, §18, §19, §20, §21, §22, §23, §24

Data set [3] can be described thus: Cassette pharmacokinetic study, intravenous or oral administration. The class given is in vivo, female Balb/c nude mice. Also noted: Cmax: unit not given here. Conditions: for F: PO 2 mg/kg vs IV 0.5 mg/kg; for Cmax / AUC(0-inf) / AUC(0-t) / MRT inf / clearance / half-life / Vd / Tmax: N = 3, cassette; for AUC(0-inf) / AUC(0-t) / MRT inf / clearance / half-life / Vd / Tmax: female, Balb/c nude, mouse, whole blood; for half-life: read-out: Terminal t1/2 (converted); for Vd: read-out: Vss. As to the method:
Determinations of the pharmacokinetic parameters of ABBV-075 (standard control), 4009, 4018, 4026 and 4031 in femal Balb/c nude mice after intravenous or oral administration.
Detailed Experimental Steps:
6 female Balb/c nude mice weighing 18-20 g were divided into two groups (3/group), after fixation, the intravenous group: 0.5 mg/kg (5 mL/kg) injected by caudal vein (N=3); the oral group: 2 mg/kg (10 mL/kg) by intragastic administration (N=3). Approximately 20 μL of blood was drawn behind the eyeball at the sampling point and placed in EDTA-2K tube. The sample was immediately diluted with 40 μL of double distilled water and vortexed until well mixed. Blood samples were stored at approximately −70° C. and submitted to the BA group for analysis (LC/MS). 30 μL of blood sample was added with 200 μL of H2O and 30 μL of IS dexamethasone, 200 ng/mL), layered by LLE, and 1 mL of MTBW was added as an organic extraction solvent. The mixture was vortexed for 10 min and centrifuged at 10,000 rpm for 5 min. 850 μL of the supernatant was evaporated under nitrogen until desiccated. The desiccated extract was re-mixed with 150 μL of 50% methanol, vortexed for 2 min, and then analyzed by injecting 5 μL of the supernatant into LC-MS/MS.
2. Intravenous/oral administration formula: 5% DMSO, 95% (10% HP-3-CD in water)
3. PK calculation parameter used non-compartment model, WinNonlin 6.4 software calculation

Like-named read-outs stand apart in the source and are kept apart here.

One may read the AUC(0-inf) as the area under the concentration-time curve extrapolated to infinity. The AUC(0-t) is exposure summed from dosing to a finite time, without extrapolation to infinity. For orientation: MRT inf means a mean duration of stay, worked out from the concentration-time curve. The term Tmax denotes the time from dosing to the highest level. On BRD4 (BD1), `CCS(=O)(=O)Nc1ccc2c(c1)-c1cn(C)c(=O)cc1CN=C2c1ccc(F)cc1` [Compound 4018, N-(7-(4-fluorophenyl)-2-methyl-3-oxo-3,5-dihydro-2H-benzo[c]pyrido[3,4-e]azapin-10-yl)ethanesulfonamide] returned an IC50 of 3 nM. At BRD4 (BD2), this compound gave an IC50 of 2 nM. Also, the IC50 in the data set on MV-4-11 cells turned out to be 5 nM. Also, in data set [1], the HLM_T1/2 came out at 1043.26 min and the CLint scaled at 1 µM was 1.67 mL/min/kg. In data set [2], the MLM_T1/2 is 352.12 min and the CLint scaled at 1 µM came to 15.5 mL/min/kg. In data set [3], this compound displayed an F of 12.2%. For the same compound, in data set [3] (PO 2 mg/kg), the Cmax is 41.9, the AUC(0-inf) stood at 98.1 ng·h/mL, the AUC(0-t) is 89.7 ng·h/mL and the Tmax worked out at 0.667 h. Besides, the half-life in data set [3] (PO 2 mg/kg) was 2.18 h. In data set [3] (IV 0.5 mg/kg), this compound gave an AUC(0-inf) of 201 ng·h/mL, an AUC(0-t) of 199 ng·h/mL, an MRT inf of 0.59 h and a clearance of 41.8 mL/min/kg. Moreover, in data set [3] (IV 0.5 mg/kg), the half-life is 0.685 h and the Vd stood at 1.51 L/kg.

In the case of `CCNC(=O)C[C@@H]1N=C(c2ccc(F)cc2)c2cc(OC)ccc2-c2cn(C)c(=O)cc21` [Compound 4023, (S)—N-ethyl-2-(7-(4-fluorophenyl)-9-methoxy-2-methyl-3-oxo-3,5-dihydro-2H-benzo[c]pyrido[3,4-e]azepin-5-yl)acetamide], the IC50 came out at 3 nM at BRD4 (BD1), 1 nM on BRD4 (BD2) and 9 nM in the data set on MV-4-11 cells. This compound showed an HLM_T1/2 in data set [1] of 121.24 min. Besides, the figures for the CLint scaled at 1 µM in data set [1] and in data set [2] were 14.3 mL/min/kg and 72.7 mL/min/kg, respectively. For the same compound, in data set [2], the MLM_T1/2 is reported as 75.05 min.

Take `CCNC(=O)C[C@@H]1N=C(c2ccc(Cl)cc2)c2ccccc2-c2cn(C)c(=O)cc21` [Compound 4016, (S)-2-(7-(4-chlorophenyl)-2-methyl-3-oxo-3,5-dihydro-2H-benzo[c]pyrido[3,4-e]azepin-5-yl)-N-ethylacetamide]: the IC50 at BRD4 (BD1) came out at 3 nM; on BRD4 (BD2), 1 nM; with MV-4-11 cells, 16 nM. The same compound returned an HLM_T1/2 in data set [1] of 34.22 min. The CLint scaled at 1 µM in data set [1] turned out to be 50.8 mL/min/kg; in data set [2], 255 mL/min/kg. The MLM_T1/2 in data set [2] was 21.37 min.

With `C[C@@H]1N=C(c2ccc(F)cc2)c2ccc(CS(N)(=O)=O)cc2-c2cn(C)c(=O)cc21` [Compound 4071, (S)-(7-(4-flurophenyl)-2,5-dimethyl-3-oxo-3,5-dihydro-2H-benzo[c]pyrido[3,4-e]azepin-10-yl)methane sulfamide], the IC50 at BRD4 (BD1) was found to be 2 nM; at BRD4 (BD2), 1 nM; in the data set with MV-4-11 cells it was 10 nM. Further, the HLM_T1/2 entry in data set [1] is listed as “∞”. The MLM_T1/2 result in data set [2] is on record as “∞”.

Take `C[C@@H]1N=C(c2ccc(F)cc2)c2ccc(CS(=O)(=O)N(C)C)cc2-c2cn(C)c(=O)cc21` [Compound 4073, (S)-1-(7-(4-flurophenyl)-2,5-dimethyl-3-oxo-3,5-dihydro-2H-benzo[c]pyrido[3,4-e]azepin-10-yl)-N,N-dimethylmethane sulfamide]: the IC50 turned out to be 1 nM at BRD4 (BD1), 1 nM at BRD4 (BD2) and 2 nM in the data set with MV-4-11 cells. The same compound came in with an HLM_T1/2 in data set [1] of 139.87 min. Moreover, the CLint scaled at 1 µM came to 12.4 mL/min/kg in data set [1] and 35 mL/min/kg in data set [2]. In addition, the MLM_T1/2 in data set [2] is on record as 156.12 min.

`CC[C@@H]1N=C(c2ccc(F)cc2)c2ccc(CS(=O)(=O)CC)cc2-c2cn(C)c(=O)cc21` [Compound 4038, (S)-5-ethyl-10-((ethylsulfonyl)methyl)-7-(4-flurophenyl)-2-methyl-2,5-dihydro-3H-benzo[c]pyrido[3,4-e]azepin-3-ketone]: the IC50 on BRD4 (BD1) was 2 nM; on BRD4 (BD2) it was 1 nM; in the data set on MV-4-11 cells it was 4 nM. Besides, in data set [1], the HLM_T1/2 result is recorded as “∞”. In addition, the MLM_T1/2 entry in data set [2] was “∞”.

On to `CCS(=O)(=O)Cc1ccc2c(c1)-c1cn(C)c(=O)cc1N(C)N=C2c1ccc(F)cc1` [Compound 4078, 10-((ethylsulfonyl)methyl)-7-(4-flurophenyl)-2,5-dimethyl-2,5-dihydro-3H-benzo[e]pyrido[4,3-c][1,2]diazepin-3-ketone], for which the IC50 on BRD4 (BD1) was found to be 5 nM; at BRD4 (BD2), 2 nM; with MV-4-11 cells, 14 nM. The compound further returned an HLM_T1/2 in data set [1] of 727.04 min. The CLint scaled at 1 µM in data set [1] came to 2.39 mL/min/kg; in data set [2], 27.9 mL/min/kg. The same compound had an MLM_T1/2 in data set [2] of 195.55 min.

`CCS(=O)(=O)Nc1cc2c(cc1Cl)C(c1ccc(F)cc1)=NCc1cc(=O)n(C)cc1-2` [Compound 4031, N-(9-chloro-7-(4-flurophenyl)-2-methyl-3-oxo-3,5-dihydro-2H-benzo[c]pyrido[3,4-e]azepin-10-yl)ethylsulfonamide] yielded an IC50 at BRD4 (BD1) of 2 nM. Also, the IC50 at BRD4 (BD2) is 1 nM. For the same compound, the IC50 in the data set on MV-4-11 cells was determined as 3 nM. Also, the HLM_T1/2 result in data set [1] is “∞”. In data set [2], the MLM_T1/2 entry is “∞”. The compound further came in with a F in data set [3] of 108%. For the same compound, in data set [3] (PO 2 mg/kg), the Cmax turned out to be 1009, the total exposure AUC(0-inf) was determined as 3330 ng·h/mL, the area under the curve AUC(0-t) came to 3300 ng·h/mL and the Tmax came out at 0.5 h. Further, in data set [3] (PO 2 mg/kg), the half-life was 3.84 h. In data set [3] (IV 0.5 mg/kg), this compound gave an AUC(0-inf) of 771 ng·h/mL, an AUC(0-t) of 729 ng·h/mL, an MRT inf of 3.5 h and a clearance of 10.9 mL/min/kg. In data set [3] (IV 0.5 mg/kg), the half-life was 2.72 h and the Vd stood at 2.34 L/kg.

Values taken from patent US20190284192A1, “NITROGENOUS MACROCYCLIC COMPOUND, PREPARATION METHOD THEREFOR, PHARMACEUTICAL COMPOSITION AND APPLICATION THEREOF” (LUOXIN PHARMACEUTICAL (SHANGHAI) CO., LTD., priority 2016, published 2019).
